≈ marks a conversion by molar mass, not a printed value. One block for each compound: values may come before it.
Key:
Format in all cases: functional
[1] = system: Escherichia coli; experiment: Antibacterial activity against Escherichia coli DK
[2] = system: Escherichia coli; experiment: Antibacterial activity against Escherichia coli DK3535
[3] = system: Escherichia coli; experiment: Antibacterial activity against Escherichia coli DK2058G
[4] = system: Staphylococcus aureus; experiment: Antibacterial activity against Staphylococcus aureus ATCC 29213
[5] = system: Staphylococcus aureus; experiment: Antibacterial activity against Staphylococcus aureus UCN18
[6] = system: Staphylococcus aureus; experiment: Antibacterial activity against Staphylococcus aureus UCN14
[7] = system: Escherichia coli; experiment: Antibacterial activity against Escherichia coli SQ171
[8] = system: Escherichia coli; experiment: Antibacterial activity against Escherichia coli SQ171 2058G
[9] = system: Staphylococcus aureus; experiment: Antibacterial activity against Staphylococcus aureus UCN17
[10] = system: Escherichia coli; experiment: Antibacterial activity against Escherichia coli MG1655
[11] = system: Klebsiella pneumoniae; experiment: Antibacterial activity against Klebsiella pneumoniae BAA 2146
[12] = system: Enterococcus faecium; experiment: Antibacterial activity against Enterococcus faecium NCTC 7171
[13] = system: Acinetobacter baumannii; experiment: Antibacterial activity against Acinetobacter baumannii 2208 ATCC 19606
[14] = system: Pseudomonas aeruginosa; experiment: Antibacterial activity against Pseudomonas aeruginosa HER 1018
[15] = system: Enterobacter cloacae; experiment: Antibacterial activity against Enterobacter cloacae ATCC 13047
[16] = system: Staphylococcus aureus; experiment: Antibacterial activity against methicillin-resistant Staphylococcus aureus ATCC 43300
[17] = system: Streptococcus pneumoniae; experiment: Antibacterial activity against Streptococcus pneumoniae 2634 mef A 2059G
[18] = system: Streptococcus pneumoniae; experiment: Antibacterial activity against Streptococcus pneumoniae 2196 erm B
[19] = system: Staphylococcus aureus; experiment: Antibacterial activity against Staphylococcus aureus ATCC 33591
[20] = system: Streptococcus pneumoniae; experiment: Antibacterial activity against Streptococcus pneumoniae 655 mef A

SMILES: CC[C@H]1OC(=O)[C@@](C)(F)C(=O)[C@H](C)[C@@H](O[C@@H]2O[C@H](C)C[C@H](N(C)C)[C@H]2O)[C@](C)(OC)C[C@@H](C)C(=O)[C@H](C)C2N(C/C=C/Cn3cc(-c4cccs4)nn3)C(=O)O[C@@]21C (single isomer, unassigned)
- MIC [1]: 2.4 µM (≈ 2 µg/mL)
- MIC [2]: 2.4 µM (≈ 2 µg/mL)
- MIC [3]: 2.4 µM (≈ 2 µg/mL)
- MIC [4]: < 0.075 µM
- MIC [5]: 9.6 µM (≈ 8.01 µg/mL)
- MIC [6]: 19 µM (≈ 15.8 µg/mL)
- MIC [7]: > 38 µM
- MIC [8]: > 38 µM
- MIC [9]: 9.6 µM (≈ 8.01 µg/mL)

SMILES: [N-]=[N+]=NC[C@@H]1CN(c2ccc(N3CCOCC3)c(F)c2)C(=O)O1
- MIC [10]: > 200 µM
- MIC [11]: > 200 µM
- MIC [12]: > 200 µM
- MIC [13]: > 200 µM
- MIC [14]: > 200 µM
- MIC [15]: > 200 µM
- MIC [16]: > 200 µM

SMILES: CC[C@H]1OC(=O)[C@@](C)(F)C(=O)[C@H](C)[C@@H](OC[C@@H](O)CN2CCCCC2)[C@](C)(OC)C[C@@H](C)C(=O)[C@H](C)C2N(CCCCn3cc(-c4cccc(N)c4)nn3)C(=O)O[C@@]21C (single isomer, unassigned)
- MIC [2]: 9.6 µM (≈ 7.96 µg/mL)
- MIC [17]: > 4.8 µM
- MIC [3]: 4.8 µM (≈ 3.98 µg/mL)
- MIC [18]: > 4.8 µM
- MIC [5]: > 150 µM
- MIC [6]: > 150 µM
- MIC [19]: > 150 µM
- MIC [20]: > 4.8 µM
- MIC [9]: > 150 µM

SMILES: [N-]=[N+]=NC[C@H]1CN(c2ccc(N3CCOCC3)c(F)c2)C(=O)O1
- MIC [10]: > 200 µM
- MIC [11]: > 200 µM
- MIC [12]: > 200 µM
- MIC [13]: > 200 µM
- MIC [14]: > 200 µM
- MIC [15]: > 200 µM
- MIC [16]: > 200 µM

SMILES: CC[C@H]1OC(=O)[C@@](C)(F)C(=O)[C@H](C)[C@@H](O[C@@H]2O[C@H](C)C[C@H](N(C)CCc3cn(C[C@@H]4CN(c5ccc(N6CCOCC6)c(F)c5)C(=O)O4)nn3)[C@H]2O)[C@](C)(OC)C[C@@H](C)C(=O)[C@H](C)C2N(CCCCn3cc(-c4cccc(N)c4)nn3)C(=O)O[C@@]21C (single isomer, unassigned)
- MIC [10]: > 200 µM
- MIC [11]: > 200 µM
- MIC [12]: > 200 µM
- MIC [13]: > 200 µM
- MIC [14]: > 200 µM
- MIC [15]: > 200 µM
- MIC [16]: 200 µM (≈ 241 µg/mL)

SMILES: CC[C@H]1OC(=O)[C@@](C)(F)C(=O)[C@H](C)[C@@H](O[C@@H]2O[C@H](C)C[C@H](N(C)CCCCn3cc(-c4cccnc4)nn3)[C@H]2O)[C@](C)(OC)C[C@@H](C)C(=O)[C@H](C)C2N(CCCCn3cc(-c4cccc(N)c4)nn3)C(=O)O[C@@]21C (single isomer, unassigned)
- MIC [1]: 7.8 µM (≈ 8.04 µg/mL)
- MIC [2]: 7.8 µM (≈ 8.04 µg/mL)
- MIC [3]: 7.8 µM (≈ 8.04 µg/mL)
- MIC [4]: 1.9 µM (≈ 1.96 µg/mL)
- MIC [5]: > 120 µM
- MIC [6]: > 120 µM
- MIC [7]: > 31 µM
- MIC [8]: > 31 µM
- MIC [9]: > 120 µM

SMILES: CC[C@H]1OC(=O)[C@@](C)(F)C(=O)[C@H](C)[C@@H](O[C@@H]2O[C@H](C)C[C@H](N(C)CCc3cn(C[C@H]4CN(c5ccc(N6CCOCC6)c(F)c5)C(=O)O4)nn3)[C@H]2O)[C@](C)(OC)C[C@@H](C)C(=O)[C@H](C)C2N(CCCCn3cc(-c4cccc(N)c4)nn3)C(=O)O[C@@]21C (single isomer, unassigned)
- MIC [10]: > 200 µM
- MIC [11]: > 200 µM
- MIC [12]: 0.2 µM (≈ 0.241 µg/mL)
- MIC [13]: > 200 µM
- MIC [14]: > 200 µM
- MIC [15]: > 200 µM
- MIC [16]: 0.8 µM (≈ 0.964 µg/mL)

The next lines start with the values.

- MIC [2]: > 41 µM
- MIC [17]: > 5.1 µM
- MIC [3]: > 41 µM
- MIC [18]: > 5.1 µM
- MIC [5]: > 160 µM
- MIC [6]: > 160 µM
- MIC [19]: > 160 µM
- MIC [20]: 2.5 µM (≈ 1.97 µg/mL)
- MIC [9]: > 160 µM
SMILES: CC[C@H]1OC(=O)[C@@](C)(F)C(=O)[C@H](C)[C@@H](OC[C@@H](O)CN(C)C)[C@](C)(OC)C[C@@H](C)C(=O)[C@H](C)C2N(CCCCn3cc(-c4cccc(N)c4)nn3)C(=O)O[C@@]21C (single isomer, unassigned)

- MIC [1]: 2.3 µM (≈ 2 µg/mL)
- MIC [2]: 4.6 µM (≈ 4.01 µg/mL)
- MIC [3]: 2.3 µM (≈ 2 µg/mL)
- MIC [4]: 1.1 µM (≈ 0.958 µg/mL)
- MIC [5]: 150 µM (≈ 131 µg/mL)
- MIC [6]: > 150 µM
- MIC [7]: > 37 µM
- MIC [8]: > 37 µM
- MIC [9]: 150 µM (≈ 131 µg/mL)
SMILES: C=CCN(C)[C@H]1C[C@@H](C)O[C@@H](O[C@@H]2[C@@H](C)C(=O)[C@](C)(F)C(=O)O[C@H](CC)[C@@]3(C)OC(=O)N(CCCCn4cc(-c5cccc(N)c5)nn4)C3[C@@H](C)C(=O)[C@H](C)C[C@@]2(C)OC)[C@@H]1O (single isomer, unassigned)

- MIC [1]: > 32 µM
- MIC [2]: > 32 µM
- MIC [3]: > 32 µM
- MIC [4]: 0.25 µM (≈ 0.251 µg/mL)
- MIC [5]: > 130 µM
- MIC [6]: > 130 µM
- MIC [7]: > 32 µM
- MIC [8]: > 32 µM
- MIC [9]: > 130 µM
SMILES: CC[C@H]1OC(=O)[C@@](C)(F)C(=O)[C@H](C)[C@@H](O[C@@H]2O[C@H](C)C[C@H](N(C)CCn3cc(-c4cccnc4)nn3)[C@H]2O)[C@](C)(OC)C[C@@H](C)C(=O)[C@H](C)C2N(CCCCn3cc(-c4cccc(N)c4)nn3)C(=O)O[C@@]21C (single isomer, unassigned)

From ChEMBL document CHEMBL5154777, “Alternative approaches utilizing click chemistry to develop next-generation analogs of solithromycin” (2022)
